Test results from paper PMC7002685, “Inhibition of vascular calcification by inositol phosphates derivatized with ethylene glycol oligomers” (Nature Communications, 2020).

Columns and labels:
Dopamine D2L = target: T1, Dopamine D2L (Homo sapiens, UniProt P14416); test: Off-target 219500 (D2L); type: binding
T1 construct: purchased Eurofins Panlabs Discovery Services Taiwan, Ltd
Experimental: (§1) The potential off-target activity of 10 µM (OEG2)2-IP4 was assessed against a panel of 87 enzymes, receptors, or ion channels that are used in standard safety pharmacology screens.
(§2) 3.2. Off-target screening assay
(§3) The experiments were conducted by a contract research organization (Eurofins Panlabs Discovery
(§4) Services Taiwan, Ltd.) and details on the respective assays can be retrieved via the catalog number
(§5) provided in Supplementary Table 11 from the company’s webpage
(§6) (https://www.eurofinsdiscoveryservices.com/). […]

Calcium Channel N-Type = target: T2, Calcium Channel N-Type (Rattus norvegicus, UniProt Q02294); test: Off-target 216000; type: binding
T2 construct: purchased Eurofins Panlabs Discovery Services Taiwan, Ltd
Experimental: as §1, §2
(§7) The experiments were conducted by a contract research organization (Eurofins Panlabs Discovery Services Taiwan, Ltd.) and details on the respective assays can be retrieved via the catalog number provided in Supplementary Table 11 from the company’s webpage
as §6
(§8) At sacrifice the left tibia of animals of the rat model with dietary adenine/high-phosphate-induced uremia and VC was collected, fixed with 70% v/v EtOH and embedded in methyl methacrylate. The trabecular bone compartment is known to be the most metabolic active i.e. actively re-structured bone compartment in CKD. Therefore, histomorphometric and micro-computed tomography (µCT) analysis of bone was performed on the trabecular compartment. Tibial sections were Goldner-stained for histomorphometric analysis of the proximal metaphysis using the AxioVision Release 4.5 software, as […]
(§9) described previously5. […]

Muscarinic M4 = target: T3, Muscarinic M4 (Homo sapiens, UniProt P08173); test: Off-target 252910; type: binding
T3 construct: purchased Eurofins Panlabs Discovery Services Taiwan, Ltd
Experimental: as §1, §2, §3, §4, §5, §6

Adrenergic β1 = target: T4, Adrenergic β1 (Homo sapiens, UniProt P08588); test: Off-target 204010; type: binding
T4 construct: purchased Eurofins Panlabs Discovery Services Taiwan, Ltd
Experimental: as §1, §2, §7, §6, §8, §9

Monoamine Oxidase MAO-B = target: T5, Monoamine Oxidase MAO-B (Homo sapiens, UniProt P27338); test: Off-target 140120; type: biochemical
T5 construct: purchased Eurofins Panlabs Discovery Services Taiwan, Ltd
Experimental: as §1, §2, §7, §6, §8, §9

[1] = test system: Protein Serine/Threonine Kinase, PKC, Non-selective; test: Off-target 178010; type: biochemical, Rat; settings: 10 µM
Experimental: as §1, §2, §7, §6, §8, §9

[2] = target: T6, Transporter, Norepinephrine (NET) (Homo sapiens, UniProt P23975); test: Off-target 204410; type: binding
T6 construct: purchased Eurofins Panlabs Discovery Services Taiwan, Ltd
Experimental: as §1, §2, §7, §6, §8, §9

Histamine H2 = target: T7, Histamine H2 (Homo sapiens, UniProt P25021); test: Off-target 239710; type: binding
T7 construct: purchased Eurofins Panlabs Discovery Services Taiwan, Ltd
Experimental: as §1, §2, §7, §6, §8, §9

[3] = test system: GABAA, Chloride Channel, TBOB; test: Off-target 226810; type: binding, Rat; settings: 10 µM
Experimental: as §1, §2, §3, §4, §5, §6

Phosphodiesterase PDE4 = test: Off-target 154000; type: biochemical, Human; settings: 10 µM
Experimental: as §1, §2, §7, §6, §8, §9

Transporter, Adenosine = test: Off-target 202000; type: binding, Guinea pig; settings: 10 µM
Experimental: as §1, §2, §3, §4, §5, §6

Adenosine A1 = target: T8, Adenosine A1 (Homo sapiens, UniProt P30542); test: Off-target 200510; type: binding
T8 construct: purchased Eurofins Panlabs Discovery Services Taiwan, Ltd
Experimental: as §1, §2, §3, §4, §5, §6

Cannabinoid CB2 = target: T9, Cannabinoid CB2 (Homo sapiens, UniProt P34972); test: Off-target 217100; type: binding
T9 construct: purchased Eurofins Panlabs Discovery Services Taiwan, Ltd
Experimental: as §1, §2, §7, §6, §8, §9

Transporter, GABA = target: T10, Transporter, GABA (Rattus norvegicus, UniProt P23978); test: Off-target 226400; type: binding
T10 construct: purchased Eurofins Panlabs Discovery Services Taiwan, Ltd
Experimental: as §1, §2, §7, §6, §8, §9

[4] = target: T11, Serotonin (5-Hydroxytryptamine) 5-HT2B (Homo sapiens, UniProt P41595); test: Off-target 271700; type: binding
T11 construct: purchased Eurofins Panlabs Discovery Services Taiwan, Ltd
Experimental: as §1, §2, §7, §6, §8, §9

Dopamine D1 = target: T12, Dopamine D1 (Homo sapiens, UniProt P21728); test: Off-target 219500 (D1); type: binding
T12 construct: purchased Eurofins Panlabs Discovery Services Taiwan, Ltd
Experimental: as §1, §2, §3, §4, §5, §6

Nicotinic Acetylcholine = test: Off-target 258590; type: binding, Human; settings: 10 µM
Experimental: as §1, §2, §7, §6, §8, §9

Endothelin ETA = target: T13, Endothelin ETA (Homo sapiens, UniProt P25101); test: Off-target 224010; type: binding
T13 construct: purchased Eurofins Panlabs Discovery Services Taiwan, Ltd
Experimental: as §1, §2, §7, §6, §8, §9

[5] = test system: GABAA, Ro-15-1788, Hippocampus; test: Off-target 226630; type: binding, Rat; settings: 10 µM
Experimental: as §1, §2, §3, §4, §5, §6

[6] = test system: Glycine, Strychnine-Sensitive; test: Off-target 239000; type: binding, Rat; settings: 10 µM
Androgen (Testosterone) = test: Off-target 206000; type: binding, Human; settings: 10 µM
Experimental: as §1, §2, §3, §4, §5, §6

Glutamate, NMDA, Agonism = test: Off-target 232810; type: binding, Rat; settings: 10 µM
Experimental: as §1, §2, §7, §6, §8, §9

Neuropeptide Y Y1 = target: T14, Neuropeptide Y Y1 (Homo sapiens, UniProt P25929); test: Off-target 257010; type: binding
T14 construct: purchased Eurofins Panlabs Discovery Services Taiwan, Ltd
Experimental: as §1, §2, §3, §4, §5, §6

[7] = target: T15, Transporter, Serotonin (5-Hydroxytryptamine) (SERT) (Homo sapiens, UniProt P31645); test: Off-target 274030; type: binding
T15 construct: purchased Eurofins Panlabs Discovery Services Taiwan, Ltd
Experimental: as §1, §2, §3, §4, §5, §6

Progesterone PR-B = target: T16, Progesterone PR-B (Homo sapiens, UniProt P06401); test: Off-target 299005; type: binding
T16 construct: purchased Eurofins Panlabs Discovery Services Taiwan, Ltd
Experimental: as §1, §2, §7, §6, §8, §9

[8] = test system: TNFα release from THP-1-derived macrophages; test: TNFα release from macrophages, compound without CPP2; type: cell-based, human; settings: without combined CPP2 treatment
Experimental: THP-1 cells were plated at a density of 200,000 cells/well in a 24-well plate, differentiated as stated above, and subsequently treated with or without CPP2 (50 μg Ca/mL) in complete medium with or without test compounds (3, 10, 30, 100 μM) for 24 h at 37 °C, 5% CO2.
Human TNF-α was assayed in cell culture supernatants using commercial multiplex immunoassay kits (U-Plex of TNF-α (custom-made multiplex plate) and Human TNF- Kit (K151QWD-1), both from MesoScaleDiscovery, Rockville, MD, USA), and corrected for total protein content using the Micro BCA^TM Protein Assay Kit. […]
Data are expressed as
mean ± s.d. (n = 3 independent experiments).

T15 sequence (P31645 whole entry): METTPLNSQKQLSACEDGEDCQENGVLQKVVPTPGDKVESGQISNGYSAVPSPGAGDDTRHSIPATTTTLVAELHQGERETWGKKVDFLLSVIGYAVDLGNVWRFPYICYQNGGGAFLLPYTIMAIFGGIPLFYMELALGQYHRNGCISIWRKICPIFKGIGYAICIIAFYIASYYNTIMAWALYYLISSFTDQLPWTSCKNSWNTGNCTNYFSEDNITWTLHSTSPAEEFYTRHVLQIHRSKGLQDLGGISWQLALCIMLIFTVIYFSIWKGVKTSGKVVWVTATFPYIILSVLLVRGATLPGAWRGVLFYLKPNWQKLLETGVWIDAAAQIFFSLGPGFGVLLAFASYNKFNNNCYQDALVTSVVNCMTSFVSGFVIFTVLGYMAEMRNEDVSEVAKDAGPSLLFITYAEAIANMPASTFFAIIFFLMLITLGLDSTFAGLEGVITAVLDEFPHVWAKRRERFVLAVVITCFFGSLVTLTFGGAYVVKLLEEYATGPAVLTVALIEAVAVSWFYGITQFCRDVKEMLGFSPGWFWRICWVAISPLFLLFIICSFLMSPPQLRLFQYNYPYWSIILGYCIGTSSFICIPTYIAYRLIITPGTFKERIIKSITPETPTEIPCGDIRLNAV
T6 sequence (P23975 whole entry): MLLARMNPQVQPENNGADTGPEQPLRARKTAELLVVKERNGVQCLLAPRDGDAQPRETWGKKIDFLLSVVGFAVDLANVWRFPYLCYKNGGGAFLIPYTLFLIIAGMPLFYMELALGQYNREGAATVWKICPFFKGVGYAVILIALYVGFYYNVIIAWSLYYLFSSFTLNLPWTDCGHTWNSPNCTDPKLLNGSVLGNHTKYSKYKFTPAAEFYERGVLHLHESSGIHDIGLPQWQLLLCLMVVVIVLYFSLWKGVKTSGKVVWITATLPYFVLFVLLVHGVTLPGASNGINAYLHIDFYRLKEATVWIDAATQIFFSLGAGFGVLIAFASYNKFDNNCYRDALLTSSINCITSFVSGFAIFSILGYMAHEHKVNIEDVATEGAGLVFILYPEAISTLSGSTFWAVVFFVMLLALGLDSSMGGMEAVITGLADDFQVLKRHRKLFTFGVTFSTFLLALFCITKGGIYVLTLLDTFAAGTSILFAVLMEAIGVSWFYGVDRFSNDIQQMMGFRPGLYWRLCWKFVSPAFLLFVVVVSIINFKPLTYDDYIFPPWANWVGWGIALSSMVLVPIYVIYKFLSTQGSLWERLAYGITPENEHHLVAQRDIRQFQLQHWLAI
T8 sequence (P30542 whole entry): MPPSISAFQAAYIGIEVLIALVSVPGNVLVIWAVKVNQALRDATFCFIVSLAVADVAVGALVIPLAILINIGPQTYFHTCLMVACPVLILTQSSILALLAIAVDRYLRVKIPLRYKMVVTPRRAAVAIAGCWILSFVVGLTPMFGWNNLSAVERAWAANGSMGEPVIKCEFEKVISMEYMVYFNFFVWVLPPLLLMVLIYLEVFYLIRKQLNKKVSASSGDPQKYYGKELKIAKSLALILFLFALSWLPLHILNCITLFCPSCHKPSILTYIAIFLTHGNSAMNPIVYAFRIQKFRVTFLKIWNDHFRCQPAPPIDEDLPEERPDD
T11 sequence (P41595 whole entry): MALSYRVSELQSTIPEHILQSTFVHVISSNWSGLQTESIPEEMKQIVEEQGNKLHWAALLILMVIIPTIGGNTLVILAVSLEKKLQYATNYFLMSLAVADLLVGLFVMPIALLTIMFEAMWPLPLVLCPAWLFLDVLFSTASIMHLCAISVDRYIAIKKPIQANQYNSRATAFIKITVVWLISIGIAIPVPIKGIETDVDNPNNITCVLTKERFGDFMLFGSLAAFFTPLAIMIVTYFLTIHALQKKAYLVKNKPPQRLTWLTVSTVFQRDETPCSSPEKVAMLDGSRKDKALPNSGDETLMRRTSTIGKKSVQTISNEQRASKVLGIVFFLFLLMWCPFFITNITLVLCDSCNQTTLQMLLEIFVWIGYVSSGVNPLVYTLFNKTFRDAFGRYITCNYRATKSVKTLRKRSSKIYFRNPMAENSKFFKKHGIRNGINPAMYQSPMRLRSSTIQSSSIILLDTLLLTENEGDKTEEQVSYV
T7 sequence (P25021 whole entry): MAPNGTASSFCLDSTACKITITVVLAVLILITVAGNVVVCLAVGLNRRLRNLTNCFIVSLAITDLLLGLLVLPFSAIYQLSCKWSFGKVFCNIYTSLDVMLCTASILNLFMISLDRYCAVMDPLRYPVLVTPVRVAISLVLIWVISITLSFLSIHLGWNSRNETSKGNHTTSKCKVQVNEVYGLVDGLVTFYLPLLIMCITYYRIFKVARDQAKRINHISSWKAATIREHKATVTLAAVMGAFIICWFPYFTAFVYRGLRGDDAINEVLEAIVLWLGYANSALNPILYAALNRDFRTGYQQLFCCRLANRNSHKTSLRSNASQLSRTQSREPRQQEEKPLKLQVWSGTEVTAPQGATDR
T2 sequence (Q02294 whole entry): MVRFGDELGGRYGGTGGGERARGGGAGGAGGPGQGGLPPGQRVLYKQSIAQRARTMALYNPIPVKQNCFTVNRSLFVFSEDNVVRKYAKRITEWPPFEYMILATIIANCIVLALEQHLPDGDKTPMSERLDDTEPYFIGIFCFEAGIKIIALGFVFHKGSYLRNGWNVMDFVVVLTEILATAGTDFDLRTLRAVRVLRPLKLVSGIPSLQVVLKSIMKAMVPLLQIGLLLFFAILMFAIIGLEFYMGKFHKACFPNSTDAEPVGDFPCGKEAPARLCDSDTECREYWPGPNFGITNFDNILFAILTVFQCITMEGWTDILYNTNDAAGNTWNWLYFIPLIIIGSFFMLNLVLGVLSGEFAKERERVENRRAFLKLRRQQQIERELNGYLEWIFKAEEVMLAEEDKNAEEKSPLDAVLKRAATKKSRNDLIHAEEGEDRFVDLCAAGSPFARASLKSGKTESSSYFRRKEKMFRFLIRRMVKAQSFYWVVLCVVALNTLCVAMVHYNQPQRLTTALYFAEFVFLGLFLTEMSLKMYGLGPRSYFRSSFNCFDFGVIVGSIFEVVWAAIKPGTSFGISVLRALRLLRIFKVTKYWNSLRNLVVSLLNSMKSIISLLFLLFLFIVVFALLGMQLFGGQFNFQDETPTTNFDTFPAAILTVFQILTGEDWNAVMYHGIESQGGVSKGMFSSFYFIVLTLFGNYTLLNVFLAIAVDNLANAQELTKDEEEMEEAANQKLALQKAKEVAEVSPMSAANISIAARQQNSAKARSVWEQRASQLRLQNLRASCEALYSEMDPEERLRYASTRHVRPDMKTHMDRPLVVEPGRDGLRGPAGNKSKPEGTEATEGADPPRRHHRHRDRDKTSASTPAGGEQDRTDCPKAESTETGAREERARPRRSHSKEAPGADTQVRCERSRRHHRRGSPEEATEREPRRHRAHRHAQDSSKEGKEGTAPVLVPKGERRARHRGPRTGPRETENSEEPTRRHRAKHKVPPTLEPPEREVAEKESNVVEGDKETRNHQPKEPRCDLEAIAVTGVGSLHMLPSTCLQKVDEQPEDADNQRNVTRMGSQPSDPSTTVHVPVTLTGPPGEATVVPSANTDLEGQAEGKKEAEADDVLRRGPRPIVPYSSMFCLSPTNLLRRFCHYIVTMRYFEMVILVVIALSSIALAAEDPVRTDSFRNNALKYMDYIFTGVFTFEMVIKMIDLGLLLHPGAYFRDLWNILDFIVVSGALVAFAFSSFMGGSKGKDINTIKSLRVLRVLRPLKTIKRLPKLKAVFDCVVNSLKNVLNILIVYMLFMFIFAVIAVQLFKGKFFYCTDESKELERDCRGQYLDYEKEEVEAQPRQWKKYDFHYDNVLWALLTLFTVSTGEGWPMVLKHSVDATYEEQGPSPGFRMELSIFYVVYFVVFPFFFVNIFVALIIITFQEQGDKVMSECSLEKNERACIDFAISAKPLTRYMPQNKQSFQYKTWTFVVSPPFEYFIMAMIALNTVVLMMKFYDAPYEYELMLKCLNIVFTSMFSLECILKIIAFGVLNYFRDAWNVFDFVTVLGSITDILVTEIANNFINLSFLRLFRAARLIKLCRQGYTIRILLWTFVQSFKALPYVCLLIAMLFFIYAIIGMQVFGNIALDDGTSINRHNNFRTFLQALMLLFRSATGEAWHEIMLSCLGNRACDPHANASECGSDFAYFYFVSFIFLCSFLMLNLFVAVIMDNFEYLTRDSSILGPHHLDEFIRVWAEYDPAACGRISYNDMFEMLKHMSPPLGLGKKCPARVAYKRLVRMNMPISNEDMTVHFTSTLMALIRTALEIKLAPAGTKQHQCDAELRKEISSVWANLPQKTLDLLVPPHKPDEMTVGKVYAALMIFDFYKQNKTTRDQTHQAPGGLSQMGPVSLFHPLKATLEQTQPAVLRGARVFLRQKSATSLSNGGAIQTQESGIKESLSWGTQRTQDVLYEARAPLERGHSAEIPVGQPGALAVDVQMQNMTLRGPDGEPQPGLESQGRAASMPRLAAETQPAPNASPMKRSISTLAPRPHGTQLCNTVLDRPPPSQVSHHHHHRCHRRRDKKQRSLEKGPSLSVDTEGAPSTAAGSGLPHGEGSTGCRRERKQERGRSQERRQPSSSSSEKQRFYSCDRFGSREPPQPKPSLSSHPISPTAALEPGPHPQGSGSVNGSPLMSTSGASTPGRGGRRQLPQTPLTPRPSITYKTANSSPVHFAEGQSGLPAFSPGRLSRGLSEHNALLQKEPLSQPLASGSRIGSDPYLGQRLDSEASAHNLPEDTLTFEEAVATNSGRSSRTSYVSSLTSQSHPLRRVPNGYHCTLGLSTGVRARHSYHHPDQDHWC

With `COCCOCCO[C@@H]1[C@@H](OP(=O)(O)O)[C@H](OCCOCCOC)[C@@H](OP(=O)(O)O)[C@@H](OP(=O)(O)O)[C@H]1OP(=O)(O)O` [(OEG2)2-IP4, 4,6-Di-O-(methoxy-diethyleneglycol)-myo-inositol-1,2,3,5-tetrakis(phosphate)] the inhibition at 10 µM (Dopamine D2L) was -10%, the inhibition at 10 µM (Calcium Channel N-Type) was 5% and the inhibition at 10 µM (Muscarinic M4) was 1%. For the same compound, the inhibition at 10 µM (Adrenergic β1) was 2%, the inhibition at 10 µM (Monoamine Oxidase MAO-B) was 0% and the “% Inhibition” value [1] was -18%. The inhibition at 10 µM [2] was 20%, the inhibition at 10 µM (Histamine H2) was -6% and the “% Inhibition” value [3] was -19%. The “% Inhibition” value (Phosphodiesterase PDE4) was 12%, the “% Inhibition” value (Transporter, Adenosine) was -14% and the inhibition at 10 µM (Adenosine A1) was 4%. The inhibition at 10 µM (Cannabinoid CB2) was 12%, the inhibition at 10 µM (Transporter, GABA) was 4% and the inhibition at 10 µM [4] was 1%. For the same compound, the inhibition at 10 µM (Dopamine D1) was -1%, the “% Inhibition” value (Nicotinic Acetylcholine) was -5% and the inhibition at 10 µM (Endothelin ETA) was 8%. For the same compound, the “% Inhibition” value [5] was 5%, the “% Inhibition” value [6] was -2% and the “% Inhibition” value (Androgen (Testosterone)) was 12%. For the same compound, the “% Inhibition” value (Glutamate, NMDA, Agonism) was 7%, the inhibition at 10 µM (Neuropeptide Y Y1) was -9% and the inhibition at 10 µM [7] was 2%. For the same compound, the inhibition at 10 µM (Progesterone PR-B) was -4% and the “increase in TNFα levels in supernatants” value [8] was “not observed”.
